Experimental data taken from patent US5863946A, “Iminoxyderivatives of fenamates as inhibitors of prostaglandin biosynthesis” (Abbott Laboratories, priority 1996, dated 1999).

How the values were obtained:
recombinant human PGHS-2 = experiment: Inhibition of PGE2 production by recombinant human PGHS-2 (microsomes, baculovirus/Sf9; EIA); format: biochemical; settings: human recombinant PGHS-2, 60 min preincubation, 10 μM arachidonic acid, 2.5 min
Description: (§1) Inhibition of prostaglandin biosynthesis was evaluated in recombinant human PGHS-1 and PGHS-2 enzyme assays. Representative compounds dissolved in DMSO (3.3% v/v) were preincubated with microsomes from recombinant human PGHS-1 or PGHS-2 expressed in the baculovirus/Sf9 cell system (Gierse, J. K., Hauser, […]., and Seibert, K. […] The reaction was allowed to run for 2.5 minutes at room temperature prior to quenching with HCl and neutralization with NaOH. PGE2 production in the presence and absence of the drug was determined by EIA analysis. The EIA was conducted in 96 well microtiter plates (Nunc Roskilde, Denmark) and optical density measured using a microplate reader (Vmax, Molecular Devices Corp., Menlo Park, Calif.). EIA reagents for prostaglandin determination were purchased from Perseptive Diagnostics, Cambridge, Mass. PGE2 levels were measured against standards prepared in the same milieu. The immunoassays were conducted as recommended by the manufacturer.

recombinant human PGHS-1 = target: T1, recombinant human PGHS-1 (Homo sapiens, UniProt P23219); experiment: Inhibition of PGE2 production by recombinant human PGHS-1 (microsomes, baculovirus/Sf9; EIA); format: biochemical; settings: human recombinant PGHS-1; 60 min preincubation; 10 μM arachidonic acid, 2.5 min
T1 construct: made in house; host or cells: baculovirus/Sf9 insect cells (microsomes)
T1 sequence (P23219 24-599): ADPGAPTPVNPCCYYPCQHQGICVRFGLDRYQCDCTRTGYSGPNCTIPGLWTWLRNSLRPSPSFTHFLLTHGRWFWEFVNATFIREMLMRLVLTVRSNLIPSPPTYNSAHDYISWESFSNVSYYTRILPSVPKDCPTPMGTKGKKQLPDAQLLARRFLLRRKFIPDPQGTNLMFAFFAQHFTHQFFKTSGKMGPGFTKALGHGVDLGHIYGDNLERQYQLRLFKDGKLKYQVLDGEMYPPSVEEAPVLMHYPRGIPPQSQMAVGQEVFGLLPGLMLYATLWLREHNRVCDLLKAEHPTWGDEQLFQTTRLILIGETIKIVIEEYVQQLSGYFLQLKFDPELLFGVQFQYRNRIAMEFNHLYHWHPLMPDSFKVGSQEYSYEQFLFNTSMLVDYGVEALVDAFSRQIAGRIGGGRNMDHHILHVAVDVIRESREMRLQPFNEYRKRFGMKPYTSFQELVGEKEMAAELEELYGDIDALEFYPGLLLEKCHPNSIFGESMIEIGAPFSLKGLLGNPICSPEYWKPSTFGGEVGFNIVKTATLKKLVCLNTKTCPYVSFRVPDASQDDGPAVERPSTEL
Description: as §1

[1] = test system: prostaglandin endoperoxide H synthase 1 (PGHS-1); settings: reported in literature; cited from earlier work
[2] = test system: prostaglandin endoperoxide H synthase 2 (PGHS-2); settings: reported in literature; cited from earlier work

Row | IC50 (recombinant human PGHS-1) [µM] | Compound | PGHS-2 % Inhibition (recombinant human PGHS-2; @ 0.1 μM) [%] | PGHS-2 % Inhibition (recombinant human PGHS-2; @ 1.0 μM) [%] | inhibition of PGHS-1 [1] | inhibition of PGHS-2 [2]
1 | 6 | Cc1ccc(Cl)c(Nc2ccccc2CON=CC(=O)O)c1Cl [Example 1, glyoxylic acid-O-[2-(2,6-dichloro-3-methylphenylamino)phenylmethyl] oxime] | 68 | – | – | –
2 | 61.1 | CC(=NOCc1ccccc1Nc1c(Cl)ccc(C)c1Cl)C(=O)O [Example 2, pyruvic acid-O-[2-[(2,6-dichloro-3-methylphenyl)amino]phenylmethyl] oxime] | – | 28 | – | –
3 | – | Cc1ccc(Cl)c(Nc2ccccc2C(=O)O)c1Cl [Meclofenamic acid] | – | – | inhibit both PGHS-1 and PGHS-2 | inhibit both PGHS-1 and PGHS-2
4 | – | CC(C)Cc1ccc(C(C)C(=O)O)cc1 (stereo not shown) [ibuprofen] | – | – | inhibit both isozymes | inhibit both isozymes
5 | – | COc1ccc2cc([C@H](C)C(=O)O)ccc2c1 [naproxen] | – | – | inhibit both isozymes | inhibit both isozymes
